Several values for one entry are separate records, joined by “and”; a condition that tells them apart may be missing. Identical values can stand only once. Inconclusive results and toxic doses are left out. Rule as the data show it: active = T/C of 150% or more; inactive = T/C below 125%.
System: L1210 leukemia ip in BDF1 mice, survival T/C
Experiment: NCI In Vivo Anticancer Drug Screen. Data for tumor model L1210 Leukemia (intraperitoneal) in B6D2F1 (BDF1) mice
Conditions: endpoint: mean survival time, higher = longer survival
Summary of the method: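 Each compound was tested against a transplantable tumor grown in mice. The endpoint was survival, with treated animals benchmarked against vehicle controls as a simple ratio.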

[1] = dose: 100.0 mg/kg/injection, schedule: Q01DX009 (ip), vehicle: Klucel (hydroxypropylcellulose) (HPC)
[2] = dose: 200.0 mg/kg/injection, schedule: Q01DX009 (ip), vehicle: Klucel (hydroxypropylcellulose) (HPC)
[3] = dose: 400.0 mg/kg/injection, schedule: Q01DX009 (ip), vehicle: Klucel (hydroxypropylcellulose) (HPC)
[4] = dose: 100.0 mg/kg/injection, schedule: Q04DX003 (ip), vehicle: saline with Tween-80
[5] = dose: 200.0 mg/kg/injection, schedule: Q04DX003 (ip), vehicle: saline with Tween-80
[6] = dose: 400.0 mg/kg/injection, schedule: Q04DX003 (ip), vehicle: saline with Tween-80
[7] = dose: 100.0 mg/kg/injection, schedule: Q04DX003 (ip), vehicle: Klucel (hydroxypropylcellulose) (HPC)
[8] = dose: 100.0 mg/kg/injection, schedule: Q01DX001 (ip), vehicle: Klucel (hydroxypropylcellulose) (HPC)
[9] = dose: 200.0 mg/kg/injection, schedule: Q01DX001 (ip), vehicle: Klucel (hydroxypropylcellulose) (HPC)
[10] = dose: 200.0 mg/kg/injection, schedule: Q04DX003 (ip), vehicle: Klucel (hydroxypropylcellulose) (HPC)
[11] = dose: 400.0 mg/kg/injection, schedule: Q01DX001 (ip), vehicle: Klucel (hydroxypropylcellulose) (HPC)
[12] = dose: 400.0 mg/kg/injection, schedule: Q04DX003 (ip), vehicle: Klucel (hydroxypropylcellulose) (HPC)
[13] = dose: 100.0 mg/kg/injection, schedule: Q04DX003 (ip), vehicle: saline
[14] = dose: 200.0 mg/kg/injection, schedule: Q04DX003 (ip), vehicle: saline
[15] = dose: 75.0 mg/kg/injection, schedule: Q04DX003 (ip), vehicle: saline
[16] = dose: 150.0 mg/kg/injection, schedule: Q04DX003 (ip), vehicle: saline
[17] = dose: 300.0 mg/kg/injection, schedule: Q04DX003 (ip), vehicle: saline
[18] = dose: 100.0 mg/kg/injection, schedule: Q04DX002 (ip), vehicle: saline with Tween-80
[19] = dose: 200.0 mg/kg/injection, schedule: Q04DX002 (ip), vehicle: saline with Tween-80
[20] = dose: 400.0 mg/kg/injection, schedule: Q04DX002 (ip), vehicle: saline with Tween-80
[21] = dose: 100.0 mg/kg/injection, schedule: Q01DX001 (ip), vehicle: saline
[22] = dose: 100.0 mg/kg/injection, schedule: Q04DX002 (ip), vehicle: Klucel (hydroxypropylcellulose) (HPC)
[23] = dose: 200.0 mg/kg/injection, schedule: Q04DX002 (ip), vehicle: Klucel (hydroxypropylcellulose) (HPC)
[24] = dose: 400.0 mg/kg/injection, schedule: Q04DX002 (ip), vehicle: Klucel (hydroxypropylcellulose) (HPC)
[25] = dose: 100.0 mg/kg/injection, schedule: Q01DX009 (ip), vehicle: saline with Tween-80

Measured: T/C

CCCCCCOC(=O)Nc1ccc([N+](=O)[O-])cc1OC
inactive: [1] 103 % of control | [2] 100 % of control | [3] 95 % of control

CCCCCCCCCCCCCCCCSc1ccc(S(=O)(=O)N(C)C)cc1C(=O)O
inactive: [4] 98 % of control | [5] 91 % of control | [6] 89 % of control

O=C1C2C(C(=O)N1c1ccccc1)C1c3ccccc3C2C2CCCCN21 (stereo not drawn)
inactive: dose: 25.0 mg/kg/injection, schedule: Q01DX009 (ip), vehicle: Klucel (hydroxypropylcellulose) (HPC) 102 % of control | dose: 50.0 mg/kg/injection, schedule: Q01DX009 (ip), vehicle: Klucel (hydroxypropylcellulose) (HPC) 105 % of control | [1] 92 % of control | [7] 92 % of control

CC(=O)Oc1c(C)c(Br)c(OC(C)=O)c(-c2c(C)cc(C)c(Br)c2C)c1Br
inactive: [8] 87 % of control | [7] 100 % of control | [9] 95 % of control | [10] 95 % of control | [11] 95 % of control | [12] 101 % of control

CN(C)CCS(=O)(=O)O
inactive: [13] 104 % of control | [14] 104 % of control | dose: 400.0 mg/kg/injection, schedule: Q04DX003 (ip), vehicle: saline 104 % of control

CCCN1C(=O)CCC1=O
inactive: [15] 109 % of control | [16] 97 % of control | [17] 101 % of control

O/N=C/c1ccc(Cc2ccccc2)o1
inactive: dose: 75.0 mg/kg/injection, schedule: Q01DX001 (ip), vehicle: carboxymethylcellulose (CMC) 97 % of control | dose: 150.0 mg/kg/injection, schedule: Q01DX001 (ip), vehicle: carboxymethylcellulose (CMC) 100 % of control | dose: 300.0 mg/kg/injection, schedule: Q01DX001 (ip), vehicle: carboxymethylcellulose (CMC) 96 % of control

CCOC(=O)CC1=C(c2ccc(OC)cc2)c2ccc(OC)cc2C1=O
inactive: dose: 50.0 mg/kg/injection, schedule: Q01DX001 (ip), vehicle: Klucel (hydroxypropylcellulose) (HPC) 98 % of control | [8] 98 % of control | [9] 95 % of control

CSCCC(NC(=O)NS(=O)(=O)c1ccc(C)cc1)C(=O)O (stereo not drawn)
inactive: [4] 96 % of control | [5] 97 % of control | [6] 100 % of control

c1ccc(CCNCc2ccc(CNCCc3ccccc3)cc2)cc1
inactive: [4] 93 % of control | [5] 90 % of control

O=C(Cc1cccc2ccccc12)OCCOCCCl
inactive: [18] 101 % of control | [19] 104 % of control | [20] 117 % of control

O=C(O)c1cc(Cl)nc(Cl)c1
inactive: [1] 97 % of control | [2] 88 % of control

Cc1cnc(SCc2ccc(Cl)cc2)[nH]c1=S
inactive: dose: 25.0 mg/kg/injection, schedule: Q01DX Z (ip), vehicle: methylcellulose (MC) 87 % of control | dose: 50.0 mg/kg/injection, schedule: Q01DX Z (ip), vehicle: methylcellulose (MC) 89 % of control

CCCCN=C(N)N=C(N)N
inactive: dose: 5.0 mg/kg/injection, schedule: Q01DX001 (ip), vehicle: saline 107 % of control | dose: 10.0 mg/kg/injection, schedule: Q01DX001 (ip), vehicle: saline 92 % of control | dose: 20.0 mg/kg/injection, schedule: Q01DX001 (ip), vehicle: saline 97 % of control | dose: 40.0 mg/kg/injection, schedule: Q01DX001 (ip), vehicle: saline 102 % of control | dose: 80.0 mg/kg/injection, schedule: Q01DX001 (ip), vehicle: saline 105 % of control | [21] 109 % of control

COC(=O)C(CC(C)C)NC(=O)C(Cc1ccc(Oc2ccc([N+](=O)[O-])cc2[N+](=O)[O-])cc1)NC=O (stereo not drawn)
inactive: dose: 25.0 mg/kg/injection, schedule: Q01DX009 (ip), vehicle: water 104 % of control | dose: 50.0 mg/kg/injection, schedule: Q01DX009 (ip), vehicle: water 98 % of control | dose: 100.0 mg/kg/injection, schedule: Q01DX009 (ip), vehicle: water 102 % of control | dose: 200.0 mg/kg/injection, schedule: Q01DX009 (ip), vehicle: water 91 % of control | dose: 400.0 mg/kg/injection, schedule: Q01DX009 (ip), vehicle: water 97 % of control

Nc1cc(C(Cl)(Cl)Cl)nc(Cl)n1
inactive: [7] 105 % of control | [10] 94 % of control | [12] 94 % of control

COC(=O)CCC(C)=O
inactive: [21] 102 % of control | dose: 200.0 mg/kg/injection, schedule: Q01DX001 (ip), vehicle: saline 102 % of control | dose: 400.0 mg/kg/injection, schedule: Q01DX001 (ip), vehicle: saline 100 % of control

CCS(=O)(=O)CS(=O)(=O)Cc1ccccc1
inactive: [15] 94 % of control | [16] 95 % of control | [17] 95 % of control

CC(C)CC(CC(C)C)NC(C)COC(=O)C(c1ccccc1)c1ccccc1 (stereo not drawn)
inactive: dose: 75.0 mg/kg/injection, schedule: Q01DX001 (ip), vehicle: saline 98 % of control | dose: 150.0 mg/kg/injection, schedule: Q01DX001 (ip), vehicle: saline 102 % of control | dose: 300.0 mg/kg/injection, schedule: Q01DX001 (ip), vehicle: saline 100 % of control

CCOc1ccccc1-n1c(-c2ccc([N+](=O)[O-])cc2)csc1=NC(=O)c1cccc([N+](=O)[O-])c1
inactive: [8] 101 % of control | [1] 96 % of control and 100 % of control and 106 % of control | [22] 94 % of control and 98 % of control | [7] 101 % of control | [9] 101 % of control | [2] 93 % of control (2×) and 95 % of control | [23] 97 % of control and 98 % of control | [10] 95 % of control | [11] 98 % of control | [3] 95 % of control and 97 % of control (2×) | [24] 96 % of control and 97 % of control | [12] 93 % of control

O=c1c2ccccc2[nH]c2ccc(-n3nnc4ccccc4c3=O)cc12
inactive: dose: 6.0 mg/kg/injection, schedule: Q04DX003 (ip), vehicle: saline 103 % of control | dose: 12.0 mg/kg/injection, schedule: Q04DX003 (ip), vehicle: saline 89 % of control | dose: 25.0 mg/kg/injection, schedule: Q04DX003 (ip), vehicle: saline 94 % of control

CCN(CC)C(=O)COC(=O)c1cccc2[nH]ccc12
inactive: [4] 102 % of control | [5] 100 % of control | [6] 102 % of control

CCOc1ccc(/C=N/NC(=O)c2ccccc2NC(=O)C2CC2)cc1OC
inactive: [25] 100 % of control | [4] 92 % of control | dose: 200.0 mg/kg/injection, schedule: Q01DX009 (ip), vehicle: saline with Tween-80 92 % of control | [5] 95 % of control | dose: 400.0 mg/kg/injection, schedule: Q01DX009 (ip), vehicle: saline with Tween-80 94 % of control | [6] 90 % of control

CCOC(=O)/C(=C\c1ccc(N(C)C)cc1)c1nc2ccccc2[nH]1
inactive: [18] 92 % of control | [19] 92 % of control | [20] 104 % of control

c1ccc2cc3c(cc2c1)oc1cc2ccccc2cc13
inactive: [7] 120 % of control | [10] 101 % of control | [12] 107 % of control

Cc1nc(N)c2nonc2n1
inactive: [25] 89 % of control

CN(C)N=Nc1ccc(C(=O)OC2CCC3C4CCC5=CC(=O)CCC5(C)C4CCC23C)cc1 (stereo not drawn)
inactive: dose: 10.0 mg/kg/injection, schedule: Q01DX009 (ip), vehicle: Klucel (hydroxypropylcellulose) (HPC) 96 % of control | [22] 94 % of control | [2] 102 % of control | [23] 102 % of control | [3] 97 % of control | [24] 91 % of control

Oc1ccccc1C=NC1CCCCC1.Oc1ccccc1C=NC1CCCCC1.[Ni+2]
inactive: [7] 96 % of control | [13] 94 % of control | [10] 92 % of control | [14] 96 % of control | [12] 90 % of control

O=C(CCc1ccncc1)Nc1ccccc1
inactive: [7] 100 % of control | [10] 96 % of control | [12] 100 % of control
